Reference: patent US11613552B2, “Pharmaceutical agents, compositions, and methods relating thereto” (Alltech, Inc., priority 2017, dated 2023)
“Also recorded” adds a separate entry of the source.

What was measured:
HepG2 cells = assay: Glucose production assay in HepG2 cells; assay type: cell-based, human; settings: for reduction in glucose production compared with 100 nM insulin / CDE / reduction in glucose production: 48 hr; for reduction in glucose production: serum-free
Protocol: Equal numbers of Human HepG2 or rat H4IIE cells (1-1.5×10^5 cells/well) were seeded on 96 well plates in 10% FBS-containing media for 24 hr. Cells were then washed twice with PBS, and treated with various concentrations of compounds, metformin or insulin in 100 μl of glucose production media (glucose-free, phenol red-free DMEM media supplemented with 20 mM sodium lactate, 2 mM sodium pyruvate and 5 mM HEPES) at 37° C. for 24 hr (H4IIE cells only) or 48 hr (HepG2 cell only). Cells were also incubated with 0.24% DMSO (the maximal volume of DMSO solvent used in the experiments).
After the above treatments, 50 μl of culture media were collected, and subjected to glucose analysis using Molecular Probes Amplex Red glucose assay kit (Cat #A22189) according to the manufacturer's protocol. Cell numbers or viability in the culture plate after the above compound treatments were determined using Promega's CellTiter96® AQueous One Solution Cell Proliferation Assay kits, according to the manufacturer's protocol and instructions. In brief, after removing 50 μl of culture media for glucose assay, cells were incubated with AQueous One solution (25 μl stock solution and 50 μl prewarmed PBS/per well) at 37° C. for 1 hour, and the absorbance of OD490 nm in each sample was determined by the Bio-Tek microplate reader. Cell viability in culture wells were determined by the subtraction of OD490 nm in cultured cells with the OD490 nm in plain culture media (without seeding of cells). Glucose production in the culture cells were obtained by normalizing the glucose concentration in culture media by cell viability in each well. At least 3 samples per each treatment were examined for the above analysis. Data are presented as Mean±SEM of those samples. Experiments were repeated at least twice.
The half maximal inhibitory concentration (IC50 values) of Compound #43 or metformin for the inhibition of glucose production were determined using the ED50 Plus v1.0 online software.

G6pc [1] = assay: QRT-PCR of basal G6pc expression in AML-12 cells; assay type: cell-based, mouse
Protocol: (§1) For RNA analysis of basal G6pc expression (without the presence of diabetic stimuli: 8-CPT/Dex), amplified AML-12 and HepG2 cells were cultured on 24-well plates (0.5-2×10^5 cells/well) overnight in 10% FBS ITS- and Dex-free DMEM/F12 media and 10% FBS EMEM media, respectively. These cells were rinsed twice with PBS to remove residual sera. Then, the PBS-washed HepG2 cells were treated without or with insulin or Compound #43 in serum-free EMEM media for 40 hr. In some experiments, the PBS-washed AML-12 cells were incubated without or with Compound #43 or other selenium compounds in serum-free DMEM/F12 media for 24 hours. In other experiments, amplified AML-12 cells were pretreated without or with Compound #43 (150 or 300 ppb) in 10% FBS but ITS/Dex-free DMEM/F12 media for 24 hr. After 24 hr treatment, AML-12 cells were washed twice with PBS (to remove any residual serum in the culture) and then treated with insulin, Compound #43 or both, in the serum-free DMEM/Dex media for 6 hr.
Total RNA from saline- or selenium compound-treated Lepr^db/db mice was isolated using a Qiagen RNAeasy RNA isolation kit according to the Manufacturer's protocol. Total RNA from cultured cells was isolated using Trizol (Invitrogen) according to the manufacturer's protocol, and then incubated with DNase I to remove any potential contaminating genomic DNA. RNA samples were subjected to real-time PCR (QRT-PCR) analysis using Applied-Bioscience's RT kit and predesigned Taqman probes (Invitrogen), as described previously (Lan et al EMBO J 2003). Data were normalized by Actin B (Actb) mRNA levels in each sample, and are presented as mean±SEM of 3-5 samples.

G6PC [2] = assay: QRT-PCR of G6PC expression in HepG2 cells; assay type: cell-based, human; settings: 100 nM insulin or 600 ppb Compound #43, serum-free, 40 hr (FIG. 10B)
Protocol: as §1
Total RNA from saline- or selenium compound-treated Lepr^db/db mice was isolated using a Qiagen RNAeasy RNA isolation kit according to the Manufacturer's protocol. Total RNA from cultured cells was isolated using Trizol (Invitrogen) according to the manufacturer's protocol, and then incubated with DNase I to remove any potential contaminating genomic DNA. […]

Pdk1/Akt/Foxo1 = assay: Western blot of Pdk1/Akt/Foxo1 in AML-12 cells under simulated diabetic conditions (8-CPT/Dex); assay type: cell-based, mouse; settings: for pFoxo1 levels / total Foxo1 protein levels: 300 ppb Compound #43 or 10 nM insulin, 6 hr
Protocol: AML-12 cells were used to investigate whether Compound #43 can regulate Pdk1/Akt/Foxo1 signaling molecules in the liver cells following induction with diabetic stimuli. Amplified AML-12 cells were seeded on 6-well (1×10^6 cells/well) plates and cultured in 10% FBS but ITS/Dex-free DMEM/F12 media for 24 hr. Then these cells were washed twice with PBS to remove residual sera, and serum-starved in plain DMEM/F12 media overnight. These serum-starved AML12 cells were treated with the diabetic stimuli 8-CPT (0.1 mM) and Dex (0.5 μM) in combination, without (Control group) or with 10 nM insulin or Compound #43 (300 ppb) in serum-free plain DMEM/F12 media for 60 minutes, 90 minutes, and 6 hr, respectively.
After the above described treatments, cultured HepG2 and AML-12 cells were rinsed twice with ice-cold PBS and lysed in ice-cold RIPA buffer containing complete proteinase and phosphatase inhibitors (Thermo-Fisher Scientific, Waltham, Mass.) on ice for 30 min. Cell lysates were collected using a cell scraper and transfer pipette, and then centrifuged at 12000×g for 30 min at 4° C. to remove the DNA pellet and obtain the protein extract. Protein levels in the supernatant of these cell lysates were determined using the Pierce Micro-BCA protein assay kit (Thermo Scientific-Piece Biotechnology, Rockford, Ill.) according to the manufacturer's protocol.
One hundred micrograms of liver tissue proteins or five micrograms of total proteins from control- and compound(s)-treated HepG2 or AML-12 cells were subjected to SDS-PAGE gel separation and then transferred to PVDF membranes, as described previously (Reddy et al. 2008 Science). Membranes were blocked in a phosphate-buffered saline (PBS) containing 5% (w/v) of bovine serum albumin (Sigma, St. Louis, Mo.) and incubated with specific primary antibodies followed by the incubation with HRP-conjugated anti-mouse or anti-rabbit secondary antibodies (1:5000 dilution, Cell Signaling Inc.). All primary antibodies except Gapdh (Li-COR, Lincoln, Nebr.) were purchased from Cell Signaling Inc. Positive signals on the membrane blots were detected using the Amersham's enhanced chemiluminescence Western Blotting Prime Detection reagents (GE Healthcare Lifescience, Pittsburgh, Pa.). Images of these luminescence signals on the membrane blots were captured using the LI-COR Odyssey Fc Image system (Lincoln, Nebr.). The same membrane blot was stripped and re-blotted with another antibody as described in the GE WB ECL-prime-detection protocol (GE healthcare Lifescience, Pittsburgh, Pa.). Protein band densities in the Western blots were determined using the NIH ImageJ software and then normalized by Gapdh or Actb/ACTB level in each sample. Data are presented as mean±SEM of three samples per each group.

| Molecule | reduction in glucose production compared with 100 nM insulin / CDE (HepG2 cells; 3.8 μM) | reduction in glucose production compared with 100 nM insulin / CDE (HepG2 cells; 3.8 μM, listed as compound #43) | reduction in glucose production compared with 100 nM insulin / CDE (HepG2 cells; 7.6 μM or higher (7.6, 15.2 and 30.4 μM)) | relative potency among tested compounds in inhibiting glucose production (HepG2 cells; FIG. 1 left-hand panel) | IC50 (HepG2 cells; Homo sapiens, HepG2, 48 hr, read-out: IC50 (inhibition of glucose production)) [µM] | effect on glucose production in HepG2 cells (HepG2 cells; tested doses, serum-free glucose production media, 48 hr (FIG. 1)) | effect on G6pc expression (G6pc [1]; 150 and 300 ppb, 24 hr pretreatment then 6 hr retreatment (FIG. 10C)) | decrease of G6pc expression vs Control (G6pc [1]; 300 ppb selenium (3.8 μM of each compound), serum-free, 24 hr (FIG. 10A)) [%] | decrease in G6pc mRNA levels vs either agent alone (G6pc [1]; pretreatment then co-treatment with 10 nM insulin, 6 hr (FIG. 10C)) | effect on G6PC expression (G6PC [2]) | pFoxo1 levels (Pdk1/Akt/Foxo1) | total Foxo1 protein levels (Pdk1/Akt/Foxo1) | phosphorylation of Pdk1, Akt and Foxo1 (Pdk1/Akt/Foxo1; 300 ppb, 60 minutes) | pFoxo1 protein levels (Pdk1/Akt/Foxo1; 300 ppb, 90 minutes) | pPdk1, pAkt, Akt and Foxo1 protein levels (Pdk1/Akt/Foxo1; 300 ppb, 90 minutes) | reduction in glucose production (HepG2 cells; 10 nM insulin) [%] | reduction in glucose production (HepG2 cells; 100 nM insulin) [%] | decrease of G6pc mRNA levels vs Control (G6pc [1]; 10 nM insulin, serum-free, 6 hr (FIG. 10C)) | phosphorylation of Pdk1, Akt and Foxo1 (Pdk1/Akt/Foxo1; 10 nM insulin, 60 and 90 minutes) |
| --- | --- | --- | --- | --- | --- | --- | --- | --- | --- | --- | --- | --- | --- | --- | --- | --- | --- | --- | --- |
| C[Se]C[C@H]1O[C@@H](n2cnc3c(N)ncnc32)C(OC(C)=O)C1OC(C)=O (stereo partly shown) [Compound #43, Adenosine, 5′-Se-methyl-5′-selino-, 2′,3′-diacetate] | as potent as the CDE combination product | comparable to that achieved when insulin (100 nM) was used | much more potent than 100 nM insulin; also recorded: more potent than CDE | the most potent | 15.5 | decrease in glucose levels in the culture media; also recorded: inhibited glucose production | significant decrease of G6pc expression with the decrease levels comparable to 10 nM insulin | ~60 | more pronounced | significantly attenuated | significant increase in pFoxo1 levels | slight but significant decrease | significantly induced the phosphorylation of Pdk1, Akt and Foxo1 | significant increase in pFoxo1 protein levels | not significantly altered | – | – | – | – |
| insulin: insulin purchased from Sigma, positive control | – | – | – | – | – | – | – | – | – | significant decrease of G6PC expression | increased pFoxo1 | slightly decreased total Foxo1 protein levels | – | – | – | 20 | 30 | about 65% | enhanced the phosphorylation of Pdk1, Akt and Foxo1 |
